Test results taken from BindingDB's records for doi:10.1021/jm00080a030 (Abbott Laboratories, 1992).
pEC50: −log10 of the molar value.

The molecules below were run against C5a anaphylatoxin chemotactic receptor 1 (Homo sapiens) (UniProt P21730) (assay: Potency as the maximal lysosomal myeloperoxidase (MPO) release in PMNL assay).
Chain of C5a anaphylatoxin chemotactic receptor 1 (Homo sapiens) (P21730 whole entry, looked up): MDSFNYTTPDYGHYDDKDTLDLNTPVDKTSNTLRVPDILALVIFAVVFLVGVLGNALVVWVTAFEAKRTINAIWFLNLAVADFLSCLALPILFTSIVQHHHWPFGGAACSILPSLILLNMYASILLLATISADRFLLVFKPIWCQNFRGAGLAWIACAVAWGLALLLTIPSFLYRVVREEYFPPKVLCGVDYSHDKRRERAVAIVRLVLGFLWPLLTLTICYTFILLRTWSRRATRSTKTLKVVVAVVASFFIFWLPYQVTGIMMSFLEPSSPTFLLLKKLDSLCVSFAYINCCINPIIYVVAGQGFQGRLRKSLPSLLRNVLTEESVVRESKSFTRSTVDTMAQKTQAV
`CSCC[C@H](NC(=O)[C@H](CC(=O)O)NC(=O)[C@H](CCCCN)NC(=O)[C@@H](N)Cc1cccs1)C(=O)N[C@@H](CCC(N)=O)C(=O)N[C@@H](CC(C)C)C(=O)NCC(=O)N[C@@H](CCCNC(=N)N)C(=O)O` showed a pEC50 of 3.70.
H-LRANISFKDMQLGR-OH gave a pEC50 of 4.22.
Ac-FKDMQLGR-OH gave a pEC50 of 4.46.
